In US8796470B2 (AbbVie Inc., priority 2010, dated 2014):
pIC50: −log10 of the molar value.

Biological target: T1, human Cav2.2 (Homo sapiens, UniProt Q00975)
T1 construct: IMR32 cells endogenously expressing human Cav2.2; endogenous in cells; host or cells: IMR32 cells (human neuroblastoma)
Experiment: Assessment of calcium channel activity using FLIPR (Ca2+ influx in IMR32 cells)
Assay type: cell-based
Conditions: IMR32 cells endogenously expressing human Cav2.2, Calcium 4 dye, 60 minute pre-incubation, 2 μM nifedipine, depolarized with 80 mM KCl, 5 mM CaCl2
Protocol: (i) In Vitro Methods—Assessment of Calcium Channel Activity Using FLIPR:
IMR32 cells endogenously expressing human Cav2.2 were assayed for Ca^2+ influx using a no-wash calcium indicator dye (Calcium 4 dye: Molecular Probes) and FLIPR technology (Lubin, M. L.; Reitz, T. L.; Todd, M. J.; Flores, C. M.; Qin, N.; Xin, H. Assay and Drug Development Technologies 2006, 4(6), 689-694.). The IMR32 cells were maintained in MEM media containing 10% (v/v) FBS, 1% (v/v) antibiotic/antimitotic, 1% (v/v) sodium pyruvate and 1% (v/v) MEM NEAA. Following dissociation in 0.05% (v/v) trypsin/EDTA, cells were seeded into black 1×96-well plates (Corning Cellbind) at a density of 1−1.2×10^5 cells/well and incubated in the maintenance media above for 48 hours at 37° C. Immediately prior to performing the assay the media was removed and cells were loaded for 1.5 hours with 1×Calcium 4 dye prepared in HBSS (137 mM NaCl, 5.4 mM KCl, 0.25 mM Na2HPO4, 0.44 mM KH2PO4, 1.3 mM CaCl2, 1 mM MgSO4, 4.2 mM NaHCO3) containing HEPES pH 7.4 at room temperature. After dye loading and a subsequent 60 minute pre-incubation with compounds (full log dilutions from 10 μM to 0.1 nM) in the presence of 1.3 mM CaCl2 and 2 μM nifedipine to block endogenous L-type channels, the external Ca^2+ concentration was increased to 5 mM CaCl2 and the cells concomitantly depolarized with 80 mM KCl to assay channel activity. To determine the IC50 values, the percent inhibition of the compound at each concentration was determined relative to the activity in the absence of inhibitor, and data was fitted using non-linear regression sigmoidal dose response curve analysis with GraphPad Prism®.

T1 sequence (Q00975 whole entry): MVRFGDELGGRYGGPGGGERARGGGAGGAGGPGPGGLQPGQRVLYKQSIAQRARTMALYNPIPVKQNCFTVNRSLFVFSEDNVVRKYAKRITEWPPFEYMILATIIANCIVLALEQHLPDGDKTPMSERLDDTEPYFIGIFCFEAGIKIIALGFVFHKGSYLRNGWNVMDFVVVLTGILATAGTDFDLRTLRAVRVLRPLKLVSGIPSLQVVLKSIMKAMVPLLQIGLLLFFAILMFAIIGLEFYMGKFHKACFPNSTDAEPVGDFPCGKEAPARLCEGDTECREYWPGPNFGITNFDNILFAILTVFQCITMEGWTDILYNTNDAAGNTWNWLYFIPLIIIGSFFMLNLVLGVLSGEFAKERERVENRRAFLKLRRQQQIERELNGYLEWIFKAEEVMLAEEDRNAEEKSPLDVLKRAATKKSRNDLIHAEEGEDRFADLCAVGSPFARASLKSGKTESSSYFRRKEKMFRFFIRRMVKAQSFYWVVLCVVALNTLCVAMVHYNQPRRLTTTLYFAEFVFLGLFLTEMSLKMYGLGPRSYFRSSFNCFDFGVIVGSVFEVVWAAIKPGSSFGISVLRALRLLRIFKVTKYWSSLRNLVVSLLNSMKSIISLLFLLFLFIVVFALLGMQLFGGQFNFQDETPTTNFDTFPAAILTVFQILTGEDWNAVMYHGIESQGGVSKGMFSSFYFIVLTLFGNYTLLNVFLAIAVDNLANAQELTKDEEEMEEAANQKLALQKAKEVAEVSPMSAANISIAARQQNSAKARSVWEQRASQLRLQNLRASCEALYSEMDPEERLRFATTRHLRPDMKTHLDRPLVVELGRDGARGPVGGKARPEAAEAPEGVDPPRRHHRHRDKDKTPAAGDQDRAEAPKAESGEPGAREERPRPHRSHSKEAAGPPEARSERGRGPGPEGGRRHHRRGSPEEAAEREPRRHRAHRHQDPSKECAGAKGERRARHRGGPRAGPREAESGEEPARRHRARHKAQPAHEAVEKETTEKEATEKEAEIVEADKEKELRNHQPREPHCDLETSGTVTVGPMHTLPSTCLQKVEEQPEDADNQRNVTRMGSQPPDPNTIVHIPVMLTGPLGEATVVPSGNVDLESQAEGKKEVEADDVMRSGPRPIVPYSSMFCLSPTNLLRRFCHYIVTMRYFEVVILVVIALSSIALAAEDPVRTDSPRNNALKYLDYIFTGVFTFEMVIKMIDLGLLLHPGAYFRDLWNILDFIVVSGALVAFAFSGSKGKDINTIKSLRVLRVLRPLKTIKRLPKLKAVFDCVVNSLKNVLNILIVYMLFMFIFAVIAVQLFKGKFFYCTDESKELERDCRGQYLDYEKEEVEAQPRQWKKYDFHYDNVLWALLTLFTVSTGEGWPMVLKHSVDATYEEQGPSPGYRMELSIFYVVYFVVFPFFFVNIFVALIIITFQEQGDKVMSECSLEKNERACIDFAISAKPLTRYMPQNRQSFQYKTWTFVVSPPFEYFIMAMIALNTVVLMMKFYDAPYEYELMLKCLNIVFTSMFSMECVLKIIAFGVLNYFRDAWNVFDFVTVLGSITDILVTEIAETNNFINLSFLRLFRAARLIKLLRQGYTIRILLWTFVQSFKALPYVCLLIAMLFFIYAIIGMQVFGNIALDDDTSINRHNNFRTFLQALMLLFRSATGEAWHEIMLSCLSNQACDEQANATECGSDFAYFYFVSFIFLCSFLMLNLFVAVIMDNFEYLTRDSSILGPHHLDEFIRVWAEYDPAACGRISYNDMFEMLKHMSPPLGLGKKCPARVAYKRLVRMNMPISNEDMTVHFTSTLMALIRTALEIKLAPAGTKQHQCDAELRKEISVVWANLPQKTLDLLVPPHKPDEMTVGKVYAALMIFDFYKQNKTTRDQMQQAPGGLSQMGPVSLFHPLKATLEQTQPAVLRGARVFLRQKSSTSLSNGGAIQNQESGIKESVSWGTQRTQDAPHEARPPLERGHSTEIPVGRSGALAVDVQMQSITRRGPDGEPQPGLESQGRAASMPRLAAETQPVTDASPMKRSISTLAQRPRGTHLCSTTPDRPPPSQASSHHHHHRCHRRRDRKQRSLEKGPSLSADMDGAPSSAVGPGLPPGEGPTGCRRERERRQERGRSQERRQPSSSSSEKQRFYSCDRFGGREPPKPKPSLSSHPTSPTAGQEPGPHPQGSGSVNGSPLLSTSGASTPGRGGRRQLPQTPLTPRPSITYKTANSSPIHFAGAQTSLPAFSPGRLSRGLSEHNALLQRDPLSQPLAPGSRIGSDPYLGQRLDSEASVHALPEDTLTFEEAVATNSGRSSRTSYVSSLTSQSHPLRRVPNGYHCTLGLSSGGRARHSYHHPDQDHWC
T1 sequence (P54289 25-956 partner limits assumed): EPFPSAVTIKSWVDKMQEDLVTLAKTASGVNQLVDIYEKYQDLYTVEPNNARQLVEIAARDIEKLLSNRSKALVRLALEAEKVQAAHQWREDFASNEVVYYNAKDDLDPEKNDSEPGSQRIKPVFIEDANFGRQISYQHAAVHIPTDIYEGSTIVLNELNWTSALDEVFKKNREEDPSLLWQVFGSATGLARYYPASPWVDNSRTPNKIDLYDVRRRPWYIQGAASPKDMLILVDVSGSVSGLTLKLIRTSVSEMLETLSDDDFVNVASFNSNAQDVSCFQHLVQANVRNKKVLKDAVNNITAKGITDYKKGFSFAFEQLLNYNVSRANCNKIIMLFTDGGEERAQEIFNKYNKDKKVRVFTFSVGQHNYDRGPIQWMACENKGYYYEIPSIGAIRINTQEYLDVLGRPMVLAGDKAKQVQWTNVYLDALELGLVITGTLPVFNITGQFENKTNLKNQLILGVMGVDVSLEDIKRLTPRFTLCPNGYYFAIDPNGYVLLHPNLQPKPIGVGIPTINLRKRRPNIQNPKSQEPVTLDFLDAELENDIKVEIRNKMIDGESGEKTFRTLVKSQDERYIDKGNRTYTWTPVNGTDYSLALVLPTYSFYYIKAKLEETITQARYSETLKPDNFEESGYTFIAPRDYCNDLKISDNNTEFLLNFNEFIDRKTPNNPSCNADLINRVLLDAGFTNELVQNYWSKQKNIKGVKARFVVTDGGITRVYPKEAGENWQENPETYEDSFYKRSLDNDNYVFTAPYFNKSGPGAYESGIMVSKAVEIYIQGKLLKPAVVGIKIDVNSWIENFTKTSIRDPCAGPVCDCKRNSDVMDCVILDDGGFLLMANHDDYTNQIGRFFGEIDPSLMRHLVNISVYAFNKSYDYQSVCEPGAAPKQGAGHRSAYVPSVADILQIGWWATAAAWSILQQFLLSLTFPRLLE
T1 sequence (P54289 957-1103 partner limits assumed): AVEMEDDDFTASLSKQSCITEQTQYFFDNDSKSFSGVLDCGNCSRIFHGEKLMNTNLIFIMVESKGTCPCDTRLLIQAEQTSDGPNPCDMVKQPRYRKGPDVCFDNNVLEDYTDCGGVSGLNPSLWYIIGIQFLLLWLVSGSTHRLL
T1 sequence (P54284 whole entry partner): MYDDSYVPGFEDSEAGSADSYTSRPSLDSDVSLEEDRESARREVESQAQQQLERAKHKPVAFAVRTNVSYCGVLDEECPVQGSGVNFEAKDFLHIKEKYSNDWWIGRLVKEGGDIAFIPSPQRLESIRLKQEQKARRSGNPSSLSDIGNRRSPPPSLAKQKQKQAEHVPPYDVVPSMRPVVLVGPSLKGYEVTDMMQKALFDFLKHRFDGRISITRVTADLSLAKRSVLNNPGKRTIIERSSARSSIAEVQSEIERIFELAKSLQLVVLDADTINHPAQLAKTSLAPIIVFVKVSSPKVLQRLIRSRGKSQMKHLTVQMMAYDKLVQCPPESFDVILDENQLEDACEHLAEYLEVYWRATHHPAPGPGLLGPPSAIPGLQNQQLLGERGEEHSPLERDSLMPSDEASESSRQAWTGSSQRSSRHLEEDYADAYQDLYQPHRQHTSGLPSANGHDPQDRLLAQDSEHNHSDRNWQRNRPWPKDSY

Compound	pIC50
O[C@H]1[C@H]2CN(c3cccc(C(F)(F)F)n3)C[C@H]2C[C@@H]1n1ccnc1 [Example 69, (3aR,4S,5S,6aS)-5-(1H-imidazol-1-yl)-2-[6-(trifluoromethyl)pyridin-2-yl]octahydrocyclopenta[c]pyrrol-4-ol]	5.04
C[C@@]1(NC(=O)c2ccccc2)CC[C@@H]2CNC[C@@H]21 [Example 8, N-[(3aR,4R,6aS)-4-methyloctahydrocyclopenta[c]pyrrol-4-yl]benzamide]	4.58
C[C@@]1(NCc2cccc(F)c2)CC[C@@H]2CN(c3cccc(C(F)(F)F)n3)C[C@@H]21 [Example 24, (3aR,4R,6aS)—N-(3-fluorobenzyl)-4-methyl-2-[6-(trifluoromethyl)pyridin-2-yl]octahydrocyclopenta[c]pyrrol-4-amine]	6.48
CCN[C@]1(C)CC[C@@H]2CN(c3cccc(C(F)(F)F)n3)C[C@@H]21 [Example 22, (3aR,4R,6aS)—N-ethyl-4-methyl-2-[6-(trifluoromethyl)pyridin-2-yl]octahydrocyclopenta[c]pyrrol-4-amine]	5.23
CC(=O)N[C@@]1(C)CC[C@@H]2CN(c3cccc(C(F)(F)F)n3)C[C@@H]21 [Example 17, N-{(3aR,4S,6aS)-4-methyl-2-[6-(trifluoromethyl)pyridin-2-yl]octahydrocyclopenta[c]pyrrol-4-yl}acetamide]	5.49
O[C@]1(c2ccccc2)CC[C@@H]2CN(Cc3ccccc3)C[C@@H]21 [Example 47, (3aR,4R,6aS)-2-benzyl-4-phenyloctahydrocyclopenta[c]pyrrol-4-ol]	5.05
C[C@]1(NC(=O)c2ccccc2)CC[C@@H]2CNC[C@@H]21 [Example 9, N-[(3aR,4S,6aS)-4-methyloctahydrocyclopenta[c]pyrrol-4-yl]benzamide]	< 4.52
CCO[C@H]1CC[C@@H]2CN(c3cccc(C(F)(F)F)n3)C[C@@H]21 [Example 41, (3aR,4S,6aS)-4-ethoxy-2-[6-(trifluoromethyl)pyridin-2-yl]octahydrocyclopenta[c]pyrrole]	5.48
CC(C)[C@@]1(O)CC[C@@H]2CN(c3cccc(C(F)(F)F)n3)C[C@@H]21 [Example 34, (3aR,4S,6aS)-4-isopropyl-2-[6-(trifluoromethyl)pyridin-2-yl]octahydrocyclopenta[c]pyrrol-4-ol]	5.52
CO[C@H]1CC[C@@H]2CN(c3cccc(C(F)(F)F)n3)C[C@@H]21 [Example 40, (3aR,4S,6aS)-4-methoxy-2-[6-(trifluoromethyl)pyridin-2-yl]octahydrocyclopenta[c]pyrrole]	5.47
CC(C)O[C@H]1CC[C@@H]2CN(c3cccc(C(F)(F)F)n3)C[C@@H]21 [Example 42, (3aR,4S,6aS)-4-isopropoxy-2-[6-(trifluoromethyl)pyridin-2-yl]octahydrocyclopenta[c]pyrrole]	5.42
O[C@H]1CC[C@@H]2CN(c3cccc(C(F)(F)F)n3)C[C@@H]21 [Example 31, (3aR,4S,6aS)-2-[6-(trifluoromethyl)pyridin-2-yl]octahydrocyclopenta[c]pyrrol-4-ol]	5.02
FC(F)(F)c1cccc(N2C[C@H]3CC[C@H](n4cnc(-c5ccc(Cl)cc5)c4)[C@H]3C2)n1 [Example 57, (3aR,4S,6aS)-4-[4-(4-chlorophenyl)-1H-imidazol-1-yl]-2-[6-(trifluoromethyl)pyridin-2-yl]octahydrocyclopenta[c]pyrrole]	5.24
O=C(Nc1cccc(F)c1)[C@H]1CC[C@@H]2CNC[C@@H]21 [Example 55, (3aS,4S,6aS)—N-(3-fluorophenyl)octahydrocyclopenta[c]pyrrole-4-carboxamide]	< 4.52
FC(F)(F)c1cccc(N2C[C@H]3CC[C@H](OC[C@@H]4CCCN4)[C@H]3C2)n1 [Example 53, (3aR,4S,6aS)-4-[(2S)-pyrrolidin-2-ylmethoxy]-2-[6-(trifluoromethyl)pyridin-2-yl]octahydrocyclopenta[c]pyrrole]	6.18
5-methyl-1-{(3aR,4S,6aS)-2-[6-(trifluoromethyl)pyridin-2-yl]octahydrocyclopenta[c]pyrrol-4-yl}-1H-benzimidazole and 6-methyl-1-{(3aR,4S,6aS)-2-[6-(trifluoromethyl)pyridin-2-yl]octahydrocyclopenta[c]pyrrol-4-yl}-1H-benzimidazole [Example 59]	5.55
Cc1nccn1[C@H]1CC[C@@H]2CN(c3cccc(C(F)(F)F)n3)C[C@@H]21 [Example 61, (3aR,4S,6aS)-4-(2-methyl-1H-imidazol-1-yl)-2-[6-(trifluoromethyl)pyridin-2-yl]octahydrocyclopenta[c]pyrrole]	5.45
O[C@@H]1CC[C@@H]2CN(c3cccc(C(F)(F)F)n3)C[C@@H]21 [Example 30, (3aR,4R,6aS)-2-[6-(trifluoromethyl)pyridin-2-yl]octahydrocyclopenta[c]pyrrol-4-ol]	4.80
O[C@]1(Cc2ccc(F)c(F)c2)CC[C@@H]2CN(c3cccc(C(F)(F)F)n3)C[C@@H]21 [Example 37, (3aR,4S,6aS)-4-(3,4-difluorobenzyl)-2-[6-(trifluoromethyl)pyridin-2-yl]octahydrocyclopenta[c]pyrrol-4-ol]	5.43
CCN[C@@]1(C)CC[C@@H]2CN(c3cccc(C(F)(F)F)n3)C[C@@H]21 [Example 23, (3aR,4S,6aS)—N-ethyl-4-methyl-2-[6-(trifluoromethyl)pyridin-2-yl]octahydrocyclopenta[c]pyrrol-4-amine]	5.75
C=C1CC[C@@H]2CN(c3cccc(C(F)(F)F)n3)C[C@H]12 [Example 49, (3aS,6aS)-4-methylene-2-[6-(trifluoromethyl)pyridin-2-yl]octahydrocyclopenta[c]pyrrole]	4.60
Fc1cccc(CCO[C@H]2CC[C@@H]3CN(c4cccc(C(F)(F)F)n4)C[C@@H]32)c1 [Example 46]	5.08
CN[C@@H](CC(C)C)C(=O)N[C@@]1(C)CC[C@@H]2CN(c3cccc(C(F)(F)F)n3)C[C@@H]21 [Example 71, N^2-methyl-N-{(3aR,4S,6aS)-4-methyl-2-[6-(trifluoromethyl)pyridin-2-yl]octahydrocyclopenta[c]pyrrol-4-yl}-L-leucinamide]	6.11
O=C(Nc1cccc(F)c1)[C@H]1CC[C@@H]2CN(c3cccc(C(F)(F)F)n3)C[C@@H]21 [Example 56, (3aS,4S,6aS)—N-(3-fluorophenyl)-2-[6-(trifluoromethyl)pyridin-2-yl]octahydrocyclopenta[c]pyrrole-4-carboxamide]	5.05
C[C@@]1(NC(=O)c2cccc(F)c2)CC[C@@H]2CN(Cc3ccccc3)C[C@@H]21 [Example 6, N-[(3aR,4R,6aS)-2-benzyl-4-methyloctahydrocyclopenta[c]pyrrol-4-yl]-3-fluorobenzamide]	4.75
O[C@]1(c2ccccc2)CC[C@@H]2CN(c3cccc(C(F)(F)F)n3)C[C@@H]21 [Example 35, (3aR,4R,6aS)-4-phenyl-2-[6-(trifluoromethyl)pyridin-2-yl]octahydrocyclopenta[c]pyrrol-4-ol]	5.54
Fc1cccc(CO[C@H]2CC[C@@H]3CN(c4cccc(C(F)(F)F)n4)C[C@@H]32)c1 [Example 45, (3aR,4S,6aS)-4-[(3-fluorobenzyl)oxy]-2-[6-(trifluoromethyl)pyridin-2-yl]octahydrocyclopenta[c]pyrrole]	5.09
